The text below walks through data of patent publication US20190099468A1, “METHOD TO PROTECT AND SEAL THE OCULAR SURFACE” (UNIVERSITY OF SOUTHERN CALIFORNIA, priority 2017, published 2019).

For experiment [1], the system named is HCLE stratified cultures. Briefly: Vital dye staining assay (fluorescein, rose bengal), oxidative stress, stratified and differentiated cells. The experiment is classed as cell-based, human. The settings on record: 10 mM tBHP; Genistein 200 uM, Chlorpromazine 8 ug/mL, Dynasore 40 uM, Dyngo-4a 15 uM; FIG. 3B-D. The text has this: (§1) The purpose of this study was to investigate mechanisms of dye uptake relevant to ocular surface disease. We hypothesized that stimulation of plasma membrane remodeling by sublethal cell damage would result in vital dye uptake into endocytic repair vesicles. Oxidative stress has been implicated in ocular surface damage due to dry eye and many other ocular surface disorders, thus we chose this as the damaging stress for our study. An aqueous stock solution of tert-butyl hydroperoxide (tBHP) was diluted into the medium of human cell cultures or mouse eye organ cultures as we have previously described. The final dilution of tBHP used for cell culture experiments was 3 mM or 10 mM (as indicated in the individual experimental details). A final dilution of 10 mM tBHP was used for mouse eye organ culture experiments. These optimal concentrations were determined empirically in dose-response assessments as causing a high level of vital dye staining without killing cells. As soon as tBHP was added, all cultures were returned to the cell culture incubator under 5% CO2 atmosphere. Stressed cultures were compared to unstressed controls incubated similarly for the same time period. Cells were incubated for 2 to 3 hours and mouse eyes were incubated for 2.5 hours before endpoint determination.
(§2) To learn whether endocytosis was involved in dye uptake, the process was blocked by treating cells or eyes with endocytic inhibitors. Chlorpromazine hydrochloride (MP Biologicals, Solon, Ohio), an inhibitor of clathrin-mediated endocytosis, was used at a final dilution of 8 ug/mL. Genistein (Sigma-Aldrich, St Louis, Mo.), an inhibitor of caveolin-mediated endocytosis, was used at 200 uM final dilution. […] All inhibitors were dissolved in DMSO, which served as the treatment vehicle. The same volume of DMSO was added to matching untreated cultures as a vehicle control.
(§3) A telomerase-immortalized line of human corneal limbal epithelial (HCLE) cells was used for all experiments employing cell culture. […] Stratification was routinely evaluated using phase contrast microscopy; differentiation leading to glycocalyx barrier function was evaluated using the rose bengal penetration assay. […]
(§4) Vital dye staining of cells in culture was performed using sodium fluorescein (Sigma-Aldrich). […] Dye uptake was evaluated qualitatively by imaging. Images (excitation/emission=488/510 nm) were taken immediately after washing, so that staining could be evaluated before dye diffused. Fluorescein uptake by cultured cells was quantified using a plate reader and depicted in graphs as relative fluorescence units (RFU). Rose bengal uptake by cultured cells or eyes was quantified using a modification of a previously described method. […]

The test system of experiment [2] is HCLE monolayer cell cultures. The experiment is described as follows: Vital dye staining assay (fluorescein), oxidative stress, monolayer cells. The class given is cell-based, human. The settings on record: 3 mM tBHP, 2 hours; Genistein 200 uM, Chlorpromazine 8 ug/mL, Dynasore 40 uM; FIG. 2B.
From the text: as §1, with “Cells were incubated for 2 to 3 hours and mouse eyes were incubated for 2.5 hours before endpoint determination.” left out
as §3, §4

Experiment [3] deals with HCLE monolayer cultures. The experiment is described as follows: MTT/WST-1 metabolic assays for cytotoxicity. The experiment is classed as cell-based, human. The settings on record: 10 mM tBHP, 2 hours; Dynasore 40 uM at the same time; FIG. 5A.
From the text: as §1, with “Stressed cultures were compared to unstressed controls incubated similarly for the same time period. Cells were incubated for 2 to 3 hours and mouse eyes were incubated for 2.5 hours before endpoint determination.” left out
as §3

Experiment [4] relates to MPS-treated monolayer cells. The settings on record: publication [61]; cited from earlier work.
Experiment [5] deals with HCLE monolayer cultures. Briefly: Endocytosis assay: uptake of Alexa Fluor 568-conjugated TF under oxidative stress. The settings on record: 3 mM tBHP; co-treatment with Dynasore 40 uM; FIG. 2A. The class given is cell-based, human.
From the text: (§5) The purpose of this study was to investigate mechanisms of dye uptake relevant to ocular surface disease. We hypothesized that stimulation of plasma membrane remodeling by sublethal cell damage would result in vital dye uptake into endocytic repair vesicles. Oxidative stress has been implicated in ocular surface damage due to dry eye and many other ocular surface disorders, thus we chose this as the damaging stress for our study. An aqueous stock solution of tert-butyl hydroperoxide (tBHP) was diluted into the medium of human cell cultures or mouse eye organ cultures as we have previously described. […] These optimal concentrations were determined empirically in dose-response assessments as causing a high level of vital dye staining without killing cells. […]
as §3
Endocytosis was quantified by monitoring cell uptake of human Alexa Fluor 568-conjugated TF (serum transferrin; Thermo Fisher Scientific, Waltham, Mass.). […] Cells were then imaged with a Keyence BZ-X700 fluorescence microscope (excitation/emission=532/588 nm). Alexa Fluor 568-conjugated TF uptake was quantified by image J analysis.

For another experiment, the system named is LGALS3. The experiment is described as follows: Western blotting of LGALS3 in cell culture medium. The experiment is classed as cell-based, human. The settings on record: stratified cultures, 3 mM tBHP, 2 hours; Dynasore 40 uM; FIG. 6B.
From the text: as §1, with “Stressed cultures were compared to unstressed controls incubated similarly for the same time period. Cells were incubated for 2 to 3 hours and mouse eyes were incubated for 2.5 hours before endpoint determination.” left out
as §3
A general note: In western blotting, separated proteins are transferred to a membrane and probed.

For experiment [6], the system named is ocular surface of ex vivo mouse eyes. Briefly: Vital dye staining assay, mouse eye organ culture under oxidative stress. The settings on record: for dye uptake at the ocular surface, post-treatment: 10 mM tBHP first, FIG. 4B; for vital dye uptake once the damage was done: used after stress was applied.
From the text: as §1, §2
The University of Southern California's Institutional Animal Care and Use Committee approved the research protocol number 11412 for use of mice in this study. Research was conducted in adherence with the Association for Research in Vision and Ophthalmology (ARVO) Statement for the Use of Animals in Ophthalmic and Visual Research. Wild type C57B1/6J mice, 6-8 weeks of age, were purchased from Jackson Labs (Bar Harbor, Me.). Prior to use in an experiment, mice were housed in a pathogen-free barrier facility and kept at […], relative humidity 60%±10%, with alternating 12-hour light/dark cycles. To obtain eyes for organ culture, euthanasia was performed using compressed CO2 gas, according to the American Veterinary Medical Association Guidelines for the Euthanasia of Animals: 2013 Edition. […]
Vital dye staining of cells in culture was performed using sodium fluorescein (Sigma-Aldrich). […] Dye uptake was evaluated qualitatively by imaging. Images (excitation/emission=488/510 nm) were taken immediately after washing, so that staining could be evaluated before dye diffused. Fluorescein uptake by cultured cells was quantified using a plate reader and depicted in graphs as relative fluorescence units (RFU). Rose bengal uptake by cultured cells or eyes was quantified using a modification of a previously described method. After imaging, the stained cells or eyes were incubated in 100 uL of DMSO at room temperature for 1 hour, and the solution was recovered into the wells of a 96 well plate to read in a plate reader at 562 nm.

The test system of experiment [7] is HCLE stratified cultures. The experiment is described as follows: Lectin binding (fluorescein-conjugated jacalin). The experiment is classed as cell-based, human. The settings on record: 3 mM tBHP, 2 hours; Dynasore 40 uM; FIG. 6A.
From the text: as §1, with “Stressed cultures were compared to unstressed controls incubated similarly for the same time period. Cells were incubated for 2 to 3 hours and mouse eyes were incubated for 2.5 hours before endpoint determination.” left out
as §3

Experiment [8] deals with HCLE monolayer cultures. The experiment is described as follows: Trypan blue exclusion assay. The settings on record: 10 mM tBHP, 3 hours; Dynasore 40 uM at the same time; FIG. 5B. The experiment is classed as cell-based, human.
From the text: as §5, §3
Cells were stained with filtered 0.4% trypan blue dye (Thermo Fisher Scientific) for 4 minutes following 3 washes with PBS. The extent of staining was measured qualitatively by imaging under white light, and quantitatively using a plate reader at 590 nm.

The test system of another experiment is cardiomyocyte. To be noted: references [56-58]; cited from earlier work.
The next experiment relates to ocular surface barrier. The settings on record: mouse model, desiccating stress; cited from earlier work.

Where a name gives a salt, the structure may show the parent alone.

For the compound `CN(C)CCCN1c2ccccc2Sc2ccc(Cl)cc21` [Chlorpromazine, Chlorpromazine hydrochloride], the “oxidative stress-stimulated vital dye uptake in stratified and differentiated cell cultures” value in the experiment with HCLE stratified cultures [1] is “no effect on vital dye uptake”. In experiment [2], the “stress-stimulated fluorescein dye uptake” value is recorded as “blocked”.

On to `O=C(N/N=C/c1ccc(O)c(O)c1)c1cc2ccccc2cc1O` [Dynasore], for which the “oxidative stress-stimulated vital dye uptake in stratified and differentiated cell cultures” value in the experiment with HCLE stratified cultures [1] was “very effective inhibitor”. Also, the “protection against oxidative stress-induced increase of MTT/WST-1 absorbance” value with HCLE monolayer cultures [3] is listed as “protective, in particular for the WST-1 assay”. Moreover, in [4], the “uptake of fluorescein in MPS-treated cells” value was “inhibited uptake of fluorescein”. Further, the “stress-stimulated TF uptake (endocytosis)” value with HCLE monolayer cultures [5] is recorded as “blocked stress-stimulated TF uptake”. Also, in the experiment with LGALS3, the “oxidative stress-caused increase in LGALS3 in the cell culture medium” value is recorded as “inhibited this increase”. The “dye uptake at the ocular surface, post-treatment” value in experiment [6] (then Dynasore 40 uM for 15 or 30 minutes) and in [6] (then Dynasore 80 uM for 15 or 30 minutes) was “dye uptake was not reduced” throughout. Further, in experiment [6] (10 mM tBHP, Dynasore 40 uM at the same time as stress, FIG. 4A), the “dye uptake at the ocular surface, co-treatment” value is recorded as “dye uptake was prevented”. For the same compound, the “vital dye uptake once the damage was done” value in experiment [6] is “no effect on vital dye uptake”. For the same compound, the “jacalin staining of cell surface mucin-type glycoconjugates” value in the experiment with HCLE stratified cultures [7] is listed as “no effect”. Also, the “protection against oxidative stress-induced trypan blue staining” value in the experiment on HCLE monolayer cultures [8] is “remarkably protective, essentially eliminating trypan blue staining”. Further, the “cardiomyocyte apoptosis following oxidative stress” value in the experiment with cardiomyocyte is “protects cardiomyocyte against entering apoptosis following oxidative stress”. In addition, in experiment [2], the “stress-stimulated fluorescein dye uptake” value is given as “also blocked”.

For the compound `O=c1c(-c2ccc(O)cc2)coc2cc(O)cc(O)c12` [Genistein], the “oxidative stress-stimulated vital dye uptake in stratified and differentiated cell cultures” value with HCLE stratified cultures [1] is on record as “no effect on vital dye uptake”. Also, in [2], the “stress-stimulated fluorescein dye uptake” value is “blocked”.

For the compound “CLU: homeostatic protein clusterin, prominent at fluid-tissue interfaces; SEQ ID NO: 1 is the human isoform 2 preproprotein”, in the experiment with ocular surface barrier, the “ocular surface barrier disruption” value is “prevents and ameliorates ocular surface barrier disruption”.

Take `O=C(N/N=C/c1cc(O)c(O)cc1O)c1cc2ccccc2cc1O` [Dyngo-4a]: in the experiment on HCLE stratified cultures [1], the “oxidative stress-stimulated vital dye uptake in stratified and differentiated cell cultures” value is reported as “very effective inhibitor of vital dye uptake”. For the same compound, in experiment [6], the “vital dye uptake once the damage was done” value was “no effect on vital dye uptake”.
